#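 Following 48 hours of exposure in 96-well plates, responses at five concentrations were used to interpolate endpoints linearly. The concentration for 50% growth inhibition is given as GI50.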 Activity calls are given as the source filed them. No stated cut-off is given here; in the data, active = GI50 up to about 1.1 µM and inactive = higher.
# Key:
# Assay in all cases: NCI tumour cell line growth inhibition, 48 h
# [1] = system: OVCAR-8
# [2] = system: OVCAR-5
# [3] = system: MDA-MB-435
# [4] = system: MCF7
# [5] = system: UACC-62
# [6] = system: HCT-15
# [7] = system: KM12
# [8] = system: PC-3
# [9] = system: SNB-19
# [10] = system: CCRF-CEM
# [11] = system: TK-10
# [12] = system: OVCAR-4
# [13] = system: DU-145
# [14] = system: SF-295
# [15] = system: HOP-92
# [16] = system: SK-MEL-5
# [17] = system: T47D
# [18] = system: A498
# [19] = system: RPMI-8226
# [20] = system: SK-OV-3
# [21] = system: SF-268
# [22] = system: HT-29
# [23] = system: Hs-578T
# [24] = system: U-251
# [25] = system: M14
# [26] = system: HCT-116
# [27] = system: A549
# [28] = system: RXF 393
# [29] = system: 786-0
# [30] = system: SNB-75
# [31] = system: SK-MEL-28
# [32] = system: HL-60
# [33] = system: NCI-H522
# [34] = system: COLO 205
# [35] = system: NCI-H226
# [36] = system: SF-539
# [37] = system: ACHN
# [38] = system: NCI/ADR-RES
# [39] = system: EKVX
# [40] = system: HCC 2998
# [41] = system: NCI-H460
# [42] = system: SN12C
# [43] = system: MDA-MB-231
# [44] = system: CAKI-1
# [45] = system: HOP-62
# [46] = system: UACC-257
# [47] = system: LOX IMVI
# [48] = system: NCI-H23
# [49] = system: MOLT-4
# [50] = system: OVCAR-3
# [51] = system: Malme-3M
# [52] = system: IGROV-1
# [53] = system: MDA-N
# [54] = system: K562
# [55] = system: SW-620
# [56] = system: UO-31
# [57] = system: SR
structure (smiles),measurement,setting,value
COc1cc(C2c3cc4c(cc3OC(NNS(=O)(=O)c3ccc(C)cc3)C2C)OCO4)cc(OC)c1O (stereo not drawn),GI50,[1],6.82 µM (inactive)
same,GI50,[2],33.9 µM (inactive)
same,GI50,[3],3.21 µM (inactive)
same,GI50,[4],6.24 µM (inactive)
same,GI50,[5],15.2 µM (inactive)
same,GI50,[6],8.32 µM
same,GI50,[7],8.81 µM (inactive)
same,GI50,[8],3.87 µM (inactive)
same,GI50,[9],16.2 µM (inactive)
same,GI50,[10],7.94 µM (inactive)
same,GI50,[11],5.41 µM (inactive)
same,GI50,[12],6.32 µM (inactive)
same,GI50,[13],33.8 µM (inactive)
same,GI50,[14],3.52 µM (inactive)
same,GI50,[15],14.5 µM (inactive)
same,GI50,[16],9.75 µM (inactive)
same,GI50,[17],10.1 µM (inactive)
same,GI50,[18],7.98 µM (inactive)
same,GI50,[19],10.1 µM (inactive)
same,GI50,[20],11.3 µM (inactive)
same,GI50,[21],14.8 µM (inactive)
same,GI50,[22],23.4 µM (inactive)
same,GI50,[23],16.9 µM (inactive)
same,GI50,[24],8.17 µM (inactive)
same,GI50,[25],15.6 µM (inactive)
same,GI50,[26],9.44 µM (inactive)
same,GI50,[27],11.7 µM (inactive)
same,GI50,[28],10.5 µM (inactive)
same,GI50,[29],16.6 µM (inactive)
same,GI50,[30],3.61 µM (inactive)
same,GI50,[31],28.9 µM (inactive)
same,GI50,[32],9.33 µM (inactive)
same,GI50,[33],25 µM (inactive)
same,GI50,[34],19.2 µM (inactive)
same,GI50,[35],9.16 µM (inactive)
same,GI50,[36],6.53 µM (inactive)
same,GI50,[37],7.98 µM (inactive)
same,GI50,[38],6.68 µM (inactive)
same,GI50,[39],11.7 µM (inactive)
same,GI50,[40],23.7 µM (inactive)
same,GI50,[41],5.85 µM (inactive)
same,GI50,[42],19 µM (inactive)
same,GI50,[43],12.3 µM (inactive)
same,GI50,[44],12.8 µM (inactive)
same,GI50,[45],10.4 µM (inactive)
same,GI50,[46],5.06 µM (inactive)
same,GI50,[47],12 µM (inactive)
same,GI50,[48],9.89 µM (inactive)
same,GI50,[49],2.52 µM (inactive)
same,GI50,[50],13.7 µM (inactive)
same,GI50,[51],5.85 µM (inactive)
same,GI50,[52],9.25 µM (inactive)
same,GI50,[53],5.21 µM (inactive)
same,GI50,[54],4.61 µM (inactive)
same,GI50,[55],24.3 µM (inactive)
NC1=C(N2CCOCC2)C(=O)NC2=N/C(=C\c3ccccc3)C(=O)N21,GI50,[1],> 100 µM (inactive)
same,GI50,[2],> 100 µM (inactive)
same,GI50,[3],> 100 µM (inactive)
same,GI50,[56],> 100 µM (inactive)
same,GI50,[4],> 100 µM (inactive)
same,GI50,[6],84.3 µM
same,GI50,[7],> 100 µM (inactive)
same,GI50,[9],> 100 µM (inactive)
same,GI50,[10],79.6 µM (inactive)
same,GI50,[11],> 100 µM (inactive)
same,GI50,[12],> 100 µM (inactive)
same,GI50,[13],> 100 µM (inactive)
same,GI50,[14],3.87 µM (inactive)
same,GI50,[15],> 100 µM (inactive)
same,GI50,[16],> 100 µM (inactive)
same,GI50,[17],81.3 µM (inactive)
same,GI50,[18],64.3 µM (inactive)
same,GI50,[19],47.4 µM (inactive)
same,GI50,[20],> 100 µM (inactive)
same,GI50,[21],> 100 µM (inactive)
same,GI50,[22],> 100 µM (inactive)
same,GI50,[23],> 100 µM (inactive)
same,GI50,[24],> 100 µM (inactive)
same,GI50,[25],> 100 µM (inactive)
same,GI50,[26],> 100 µM (inactive)
same,GI50,[27],> 100 µM (inactive)
same,GI50,[28],> 100 µM (inactive)
same,GI50,[29],> 100 µM (inactive)
same,GI50,[30],> 100 µM (inactive)
same,GI50,[31],> 100 µM (inactive)
same,GI50,[32],17.9 µM (inactive)
same,GI50,[33],> 100 µM (inactive)
same,GI50,[34],> 100 µM (inactive)
same,GI50,[35],97.9 µM (inactive)
same,GI50,[36],76.7 µM (inactive)
same,GI50,[37],> 100 µM (inactive)
same,GI50,[38],> 100 µM (inactive)
same,GI50,[39],> 100 µM (inactive)
same,GI50,[40],> 100 µM (inactive)
same,GI50,[41],> 100 µM (inactive)
same,GI50,[42],> 100 µM (inactive)
same,GI50,[43],> 100 µM (inactive)
same,GI50,[44],> 100 µM (inactive)
same,GI50,[46],> 100 µM (inactive)
same,GI50,[47],> 100 µM (inactive)
same,GI50,[48],> 100 µM (inactive)
same,GI50,[49],35.8 µM (inactive)
same,GI50,[51],> 100 µM (inactive)
same,GI50,[52],> 100 µM (inactive)
same,GI50,[53],> 100 µM (inactive)
same,GI50,[57],49.2 µM (inactive)
same,GI50,[54],26.1 µM (inactive)
same,GI50,[55],> 100 µM (inactive)

# — ChEMBL document CHEMBL1201862, “PubChem BioAssay data set” (2004)
